In assay [1] the test system is HCV 1a-H77 subgenomic replicon. Put plainly: microbe, parasite or virus in culture. In kind it is cell-based, HCV genotype 1a. Conditions: Hepatitis C virus, stable replicon. (A replicon is a self-replicating genome or part of one, used to study replication in cells.)
The subject of assay [2] is chimeric replicon with genotype 3a NS5B. Put plainly: microbe, parasite or virus in culture. In kind it is cell-based, HCV genotype 3a. The note with it: Hepatitis C virus, read-out: 3a chimera 5% FBS EC50.
The subject of assay [3] is chimeric replicon with 2a-J6CF-derived NS5B. The experiment in a line: microbe, parasite or virus in culture. Conditions: Hepatitis C virus, read-out: 2a chimera 5% FBS EC50. In kind it is cell-based, HCV genotype 2a.
For assay [4], the system named is HCV 1b-BB7 subgenomic replicon. The experiment in a line: microbe, parasite or virus in culture. The class given is cell-based, HCV genotype 1b. Conditions: Hepatitis C virus, stable replicon.
Assay [5] deals with chimeric replicon with genotype 2b NS5B. The experiment in a line: microbe, parasite or virus in culture. The class given is cell-based, HCV genotype 2b. Conditions: Hepatitis C virus, read-out: 2b chimera 5% FBS EC50.
For assay [6], the target named is T1, HCV NS5B polymerase 1a-H77-C316Y (Hepatitis C virus genotype 1a, UniProt P27958, C2736Y).
T1 construct: six-histidine tag; made in house; host or cells: E. coli
T1 sequence (P27958 2421-2990 C2736Y): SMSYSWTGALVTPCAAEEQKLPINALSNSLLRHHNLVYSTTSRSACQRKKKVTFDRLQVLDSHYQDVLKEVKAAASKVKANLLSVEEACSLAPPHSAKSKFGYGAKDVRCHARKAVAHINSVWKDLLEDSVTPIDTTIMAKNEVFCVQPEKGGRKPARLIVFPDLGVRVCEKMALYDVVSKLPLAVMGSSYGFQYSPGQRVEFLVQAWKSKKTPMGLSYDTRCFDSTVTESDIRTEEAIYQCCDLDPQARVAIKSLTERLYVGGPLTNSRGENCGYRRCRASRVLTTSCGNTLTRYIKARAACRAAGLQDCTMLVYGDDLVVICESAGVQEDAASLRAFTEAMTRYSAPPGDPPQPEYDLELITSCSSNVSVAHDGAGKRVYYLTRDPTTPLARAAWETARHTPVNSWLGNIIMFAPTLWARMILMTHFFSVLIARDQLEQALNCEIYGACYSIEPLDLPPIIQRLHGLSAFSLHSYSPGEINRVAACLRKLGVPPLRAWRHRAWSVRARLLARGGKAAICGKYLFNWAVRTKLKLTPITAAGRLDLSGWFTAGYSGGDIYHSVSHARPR
Put plainly: biochemical. More on the design: species or system HCV genotype 1a. In a few lines: (§1)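 E. coli-expressed NS5B (residues 1-570, His-tagged) transcribed a 2.1 kb HCV 1b negative-strand 3′-end RNA template (5 nM) with 20 μM CTP, 20 μM ATP and 0.284 μM [3H]UTP for 3 h at 30° C. Spermine-precipitated RNA was filter-captured and counted by scintillation; IC50 from nonlinear regression.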

The test system of assay [7] is HCV NS5B polymerase 1a-H77-C316Y. Put plainly: biochemical. Also on record: species or system HCV genotype 1a. Conditions: ratio of enzyme IC50s, 1a H77-C316Y / 1a H77. In a few lines: as §1
Assay [8] concerns the target T2, HCV NS5B polymerase 1a-H77 (Hepatitis C virus genotype 1a, UniProt P27958).
T2 construct: six-histidine tag; made in house; host or cells: E. coli
The experiment in a line: biochemical. Conditions: enzyme, strain 1a H77; read-out: HCV Polymerase Strain 1a H77 IC50. Also on record: species or system HCV genotype 1a. Put shortly:
as §1

The test system of assay [9] is chimeric replicon with genotype 4a NS5B. Put plainly: microbe, parasite or virus in culture. In kind it is cell-based, HCV genotype 4a. The note with it: Hepatitis C virus, read-out: 4a chimera 5% FBS EC50.
In assay [10] the target is T3, HCV NS5B polymerase 1b BK strain (Hepatitis C virus genotype 1b, UniProt P26663).
T3 construct: six-histidine tag; made in house; host or cells: E. coli
T3 sequence (P26663 2420-2989): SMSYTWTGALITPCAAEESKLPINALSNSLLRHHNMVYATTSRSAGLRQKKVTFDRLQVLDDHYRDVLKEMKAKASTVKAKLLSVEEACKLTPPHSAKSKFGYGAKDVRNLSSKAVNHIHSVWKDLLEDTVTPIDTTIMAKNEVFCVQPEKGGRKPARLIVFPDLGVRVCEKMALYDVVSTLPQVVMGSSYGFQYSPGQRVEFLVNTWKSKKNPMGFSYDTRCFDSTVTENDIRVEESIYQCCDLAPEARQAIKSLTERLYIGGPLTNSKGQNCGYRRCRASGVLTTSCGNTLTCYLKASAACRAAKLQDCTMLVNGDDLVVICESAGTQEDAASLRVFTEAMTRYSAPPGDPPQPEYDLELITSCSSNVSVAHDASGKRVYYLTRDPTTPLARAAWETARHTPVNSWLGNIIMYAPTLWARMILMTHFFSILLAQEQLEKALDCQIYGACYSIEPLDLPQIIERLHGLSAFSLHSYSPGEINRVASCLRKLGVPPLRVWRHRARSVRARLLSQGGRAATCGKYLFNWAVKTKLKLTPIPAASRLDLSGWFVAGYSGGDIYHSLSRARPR
Put plainly: HCV NS5B polymerase enzymatic inhibition assay, strain 1b BK. Conditions: enzyme, strain 1b BK; read-out: HCV Polymerase Strain 1b BK IC50. The class given is biochemical. In a few lines:
as §1

The mark [11] stands for this setting: 5% FBS, absence of human plasma, read-out: Stable Replicon 1a H77 5% FBS EC50.
Where [12] appears, read: strain 1a H77, 5% FBS + 40% human plasma, read-out: 1a H77 5% FBS + 40% Human Plasma EC50.
[13] abbreviates: strain 1a H77, 5% FBS, no human plasma, read-out: 1a H77 5% FBS EC50.
The mark [14] stands for this setting: strain 1a H77, 5% FBS, read-out: 1a H77 5% FBS EC50.
The mark [15] stands for this setting: strain 1b BB7, 5% FBS + 40% human plasma, read-out: 1b BB7 5% FBS + 40% Human Plasma EC50.
Setting [16] is: strain 1b BB7, 5% FBS, no human plasma, read-out: 1b BB7 5% FBS EC50.
Where [17] appears, read: strain 1b BB7, 5% FBS, read-out: 1b BB7 5% FBS EC50.

Read-outs that look alike come from different tables or passages of the source. Where only a bound is given, the exact number is not on record here.

T2 sequence (P27958 2421-2990): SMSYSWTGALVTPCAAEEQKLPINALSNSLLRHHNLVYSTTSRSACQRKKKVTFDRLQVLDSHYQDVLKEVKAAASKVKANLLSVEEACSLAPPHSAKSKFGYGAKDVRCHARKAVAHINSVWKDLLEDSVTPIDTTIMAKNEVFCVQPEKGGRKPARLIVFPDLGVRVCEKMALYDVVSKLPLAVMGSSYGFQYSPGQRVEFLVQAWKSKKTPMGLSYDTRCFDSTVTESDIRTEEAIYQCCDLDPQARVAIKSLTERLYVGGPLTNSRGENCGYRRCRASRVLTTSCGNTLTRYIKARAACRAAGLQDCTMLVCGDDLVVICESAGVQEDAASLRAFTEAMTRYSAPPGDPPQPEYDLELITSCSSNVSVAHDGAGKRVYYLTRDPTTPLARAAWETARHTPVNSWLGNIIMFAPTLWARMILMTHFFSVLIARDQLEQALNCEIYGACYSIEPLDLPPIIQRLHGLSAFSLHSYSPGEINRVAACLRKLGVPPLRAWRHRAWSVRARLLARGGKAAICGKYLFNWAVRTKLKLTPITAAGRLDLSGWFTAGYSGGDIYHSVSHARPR

For `CS(=O)(=O)N(CCCn1cccc1)c1cc2oc(-c3ccc(F)cc3)c(C3=NOCCN3)c2cc1C1CC1` [Example 119, N-[5-cyclopropyl-3-(5,6-dihydro-4H-1,2,4-oxadiazin-3-yl)-2-(4-fluorophenyl)-1-benzofuran-6-yl]-N-[3-(1H-pyrrol-1-yl)propyl]methanesulfonamide], the EC50 was found to be 0.0194 µM in [1] (setting [11]); 0.247 µM in assay [1] (setting [12]); 0.0194 µM in [1] (setting [13]); 0.0194 µM in [1] (setting [14]); 0.03 µM in [2]; 0.079 µM in assay [3]. Moreover, the EC50 in assay [4] (setting [15]) was 0.129 µM; in assay [4] (setting [16]), 0.017 µM; in assay [4] (setting [17]) it was 0.017 µM; in assay [5], 0.189 µM; in [9], 0.142 µM. Further, the figures for the IC50 in [6], in assay [8] and in assay [10] were 0.041 µM, 0.007 µM and 0.038 µM, respectively. Besides, the “C316Y/1a Fold Resistance” value in assay [7] is reported as 6 fold.
As for `CS(=O)(=O)N(CCCCC(F)=C(F)F)c1cc2oc(-c3ccc(F)cc3)c(C3=NOCCN3)c2cc1C1CC1` [Example 120, N-[5-cyclopropyl-3-(5,6-dihydro-4H-1,2,4-oxadiazin-3-yl)-2-(4-fluorophenyl)-1-benzofuran-6-yl]-N-(5,6,6-trifluorohex-5-en-1-yl)methanesulfonamide], the EC50 in assay [1] (setting [11]) turned out to be 0.0175 µM; in assay [1] (setting [12]), 0.19 µM; in [1] (setting [13]), 0.0175 µM; in [1] (setting [14]) it was 0.0175 µM; in assay [2] it was 0.036 µM; in [3] it was 0.125 µM. The EC50 stood at 0.189 µM in assay [4] (setting [15]); 0.018 µM in assay [4] (setting [16]); 0.018 µM in [4] (setting [17]); 0.157 µM in assay [5]; 0.082 µM in assay [9]. In addition, the results for the IC50 in [6], in assay [8] and in assay [10] were 0.028 µM, 0.005 µM and 0.047 µM, respectively. Also, the “C316Y/1a Fold Resistance” value in assay [7] amounted to 6 fold.
In the case of `CC(C)(O)CCN(c1cc2oc(-c3ccc(F)cc3)c(C3=NOCCN3)c2cc1C1CC1)S(C)(=O)=O` [Example 125, N-[5-cyclopropyl-3-(5,6-dihydro-4H-1,2,4-oxadiazin-3-yl)-2-(4-fluorophenyl)-1-benzofuran-6-yl]-N-(3-hydroxy-3-methylbutyl)methanesulfonamide], the EC50 turned out to be 0.0126 µM in assay [1] (setting [11]); 0.156 µM in assay [1] (setting [12]); 0.0126 µM in assay [1] (setting [13]); 0.0126 µM in [1] (setting [14]); 0.05 µM in [2]; 0.222 µM in assay [3]. In addition, the EC50 in [4] (setting [15]) was 0.347 µM; in [4] (setting [16]) it was 0.02 µM; in assay [4] (setting [17]) it was 0.02 µM; in [5], 0.182 µM; in assay [9], 0.085 µM. In addition, the IC50 in assay [6] amounted to 0.112 µM; in assay [8] it was 0.011 µM; in [10], 0.06 µM. In addition, the “C316Y/1a Fold Resistance” value in [7] is reported as 10 fold.
For the compound `CN(C)CCCN(c1cc2oc(-c3ccc(F)cc3)c(C3=NOCCN3)c2cc1C1CC1)S(C)(=O)=O` [Example 127, N-[5-cyclopropyl-3-(5,6-dihydro-4H-1,2,4-oxadiazin-3-yl)-2-(4-fluorophenyl)-1-benzofuran-6-yl]-N-[3-(dimethylamino)propyl]methanesulfonamide], the EC50 in assay [1] (setting [11]) worked out at 0.0648 µM; in assay [1] (setting [12]), 0.123 µM; in [1] (setting [13]), 0.0648 µM; in assay [1] (setting [14]), 0.0648 µM; in assay [2] it was 0.057 µM; in assay [3], 0.344 µM. The EC50 in [4] (setting [15]) turned out to be 0.09 µM; in assay [4] (setting [16]), 0.021 µM; in [4] (setting [17]) it was 0.021 µM; in assay [5], 0.309 µM; in [9] it was 0.814 µM. Moreover, the IC50 came out at 0.663 µM in [6], 0.0254 µM in assay [8] and 0.302 µM in assay [10]. The “C316Y/1a Fold Resistance” value in assay [7] was 26 fold.
Turning to `CS(=O)(=O)N(CCN1CCCC1)c1cc2oc(-c3ccc(F)cc3)c(C3=NOCCN3)c2cc1C1CC1` [Example 128, N-[5-cyclopropyl-3-(5,6-dihydro-4H-1,2,4-oxadiazin-3-yl)-2-(4-fluorophenyl)-1-benzofuran-6-yl]-N-[2-(pyrrolidin-1-yl)ethyl]methanesulfonamide], the EC50 in assay [1] (setting [11]) amounted to 0.161 µM; in assay [1] (setting [12]), 0.383 µM; in [1] (setting [13]), 0.161 µM; in [1] (setting [14]), 0.161 µM; in assay [2], 0.216 µM; in assay [3], 0.699 µM. Besides, the EC50 is 0.268 µM in assay [4] (setting [15]); 0.044 µM in assay [4] (setting [16]); 0.044 µM in assay [4] (setting [17]); 0.839 µM in [5]; more than 1 µM in assay [9]. For the same compound, the results for the IC50 in [6], in [8] and in [10] were 0.995 µM, 0.0456 µM and 0.667 µM, respectively. The “C316Y/1a Fold Resistance” value in assay [7] stood at 22 fold.
With `CCN(CC)CCN(c1cc2oc(-c3ccc(F)cc3)c(C3=NOCCN3)c2cc1C1CC1)S(C)(=O)=O` [Example 129, N-[5-cyclopropyl-3-(5,6-dihydro-4H-1,2,4-oxadiazin-3-yl)-2-(4-fluorophenyl)-1-benzofuran-6-yl]-N-[2-(diethylamino)ethyl]methanesulfonamide], the EC50 was found to be 0.0809 µM in assay [1] (setting [11]); 0.3 µM in assay [1] (setting [12]); 0.0809 µM in assay [1] (setting [13]); 0.0809 µM in assay [1] (setting [14]); 0.149 µM in assay [2]; 0.625 µM in assay [3]. Also, the EC50 was 0.163 µM in assay [4] (setting [15]); 0.038 µM in assay [4] (setting [16]); 0.038 µM in assay [4] (setting [17]); 0.625 µM in assay [5]; more than 1 µM in assay [9]. Further, the values for the IC50 in assay [6], in assay [8] and in assay [10] were 0.632 µM, 0.024 µM and 0.466 µM, respectively. The “C316Y/1a Fold Resistance” value in [7] is 26 fold.
On to `CCN(CC)CCCN(c1cc2oc(-c3ccc(F)cc3)c(C3=NOCCN3)c2cc1C1CC1)S(C)(=O)=O` [Example 131, N-[5-cyclopropyl-3-(5,6-dihydro-4H-1,2,4-oxadiazin-3-yl)-2-(4-fluorophenyl)-1-benzofuran-6-yl]-N-[3-(diethylamino)propyl]methanesulfonamide], for which the EC50 came to 0.122 µM in [1] (setting [11]); 0.35 µM in [1] (setting [12]); 0.122 µM in [1] (setting [13]); 0.122 µM in assay [1] (setting [14]); 0.131 µM in [2]; 0.38 µM in assay [3]. Besides, the EC50 in assay [4] (setting [15]) was determined as 0.102 µM; in [4] (setting [16]), 0.026 µM; in assay [4] (setting [17]), 0.026 µM; in [5], 0.446 µM; in assay [9], 0.782 µM. Moreover, the IC50 in assay [6] was 0.876 µM; in [8], 0.0302 µM; in [10] it was 0.171 µM. Besides, the “C316Y/1a Fold Resistance” value in assay [7] stood at 29 fold.
On to `CS(=O)(=O)N(CCCN1CCCC1)c1cc2oc(-c3ccc(F)cc3)c(C3=NOCCN3)c2cc1C1CC1` [Example 132, N-[5-cyclopropyl-3-(5,6-dihydro-4H-1,2,4-oxadiazin-3-yl)-2-(4-fluorophenyl)-1-benzofuran-6-yl]-N-[3-(pyrrolidin-1-yl)propyl]methanesulfonamide], for which the concentration for a half-maximal effect (EC50) in assay [1] (setting [11]) amounted to 0.142 µM; in assay [1] (setting [12]), 0.313 µM; in assay [1] (setting [13]), 0.142 µM; in [1] (setting [14]), 0.142 µM; in assay [2] it was 0.093 µM; in assay [3], 0.244 µM. The EC50 in assay [4] (setting [15]) is 0.122 µM; in assay [4] (setting [16]), 0.04 µM; in assay [4] (setting [17]), 0.04 µM; in assay [5] it was 0.428 µM; in assay [9], more than 1 µM. Further, the IC50 in assay [6] was 0.934 µM; in assay [8] it was 0.022 µM; in assay [10], 0.246 µM. Also, in [7], the “C316Y/1a Fold Resistance” value is listed as 42 fold.

In general, EC50 refers to the concentration that produces a half-maximal response. By IC50 is commonly meant the concentration that inhibits the measured activity by half.

(Values after patent US20160355530A1, “HEPATITIS C INHIBITORS AND USES THEREOF” (AbbVie Inc., priority 2010, published 2016).)
